From patent publication US20230158025A1 (UNIVERSITY OF UTAH RESEARCH FOUNDATION, priority 2020, published 2023)
Read-outs that look alike come from different tables or passages of the source.

How the values were obtained:
recombinant human GALK1 = recombinant human GALK1 (Homo sapiens, UniProt P51570); assay: hGALK1 biochemical activity assay (Kinase-Glo Plus, ATP depletion)
Outline: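 Recombinant human or mouse GALK1 (5 nM, with 100 μM galactose, in the added enzyme solution) was run with ATP (35 μM in the substrate solution) in HEPES pH 8.0 buffer. Compounds were tested at 11 1/3-step concentrations from 57.4 μM to 0.97 nM. After 1 h at room temperature, remaining ATP was read by Kinase-Glo Plus luminescence.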

recombinant mouse GALK1 = recombinant mouse GALK1 (Mus musculus, UniProt Q9R0N0); assay: mGALK1 biochemical activity assay (Kinase-Glo Plus, ATP depletion)
Outline: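 Recombinant GALK1 (5 nM) with 100 μM galactose; GALK1 turnover read as ATP depletion by Kinase-Glo Plus luminescence. Reaction ran 1 h at room temperature before detection reagent was added.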

hGALK1m = biological target: T1, hGALK1m (Homo sapiens, UniProt P51570, E253A/K252A); assay: in vitro hGALK1 activity assay of the structure-based optimisation (Example 12, Tables 17-20); type: biochemical; settings: for Emax: Tables 18-19, read-out: Max Response (%)
T1 construct: made in house; host or cells: E. coli HMS174
Method: In vitro hGALK1 activity assays were performed as previously described. Liu et al., Bioorg. Med. Chem. Lett. 25(3): 721-727 (2015), which is incorporated by reference herein for the specific teachings thereof. The biochemical assay was performed by coupling the activity of recombinant human or mouse GALK1 to the Kinase-Glo Plus luminescent ATP detection kit, using ATP depletion as a measure of GALK1 turnover. Specifically, three μL/well of ATP substrate solution (35 μM ATP) in assay buffer (20 mM HEPES pH 8.0, 5 mM MgCl2, 60 mM NaCl, 1 mM DTT, 0.01% BSA final concentration) was dispensed into 1536-well assay plates (Greiner, white solid-bottom medium-binding plates). Aliquots of compound (23 nL solubilized in DMSO) were transferred to the assay plates using a Kalypsys 1536-well pintool such that 11 concentrations with 1/3 dilutions ranging from 57.4 μM-0.97 nM are tested. One μL/well of GALK-galactose solution (5 nM GALK1, 100 μM galactose) in assay buffer was then added, yielding a final reaction volume of 4 μL/well. Following a 1-hour room temperature incubation, 4 μL of Kinase-Glo Plus detection reagent was added to provide an ATP-dependent luminescent readout (final assay volume: 8 μL/well). Luminescence was detected using a ViewLux plate reader (PerkinElmer) after a 10-minute incubation, using a 1 second exposure time and 2× binning.
The in vitro hGALK1 activity assay was performed as previously described. Liu et al., Bioorg. Med. Chem. Lett. 25(3): 721-727 (2015). For the measurement of cellular Gal-1P reduction, compounds at different concentrations were added to cultured patient fibroblast at 80% confluency. After incubating the compounds for 16 hours, 10 mM galactose was added to the culture. After another 4 hours, cells were washed with cold PBS buffer 3× and harvested for gal-1P measurement, according to the previously published method. Liu et al., Bioorg. Med. Chem. Lett. 25(3): 721-727 (2015).

PAMPA permeability = settings: for Papp: PAMPA, ADME P: PAMPA permeability (class), Tables 17-19, class probably colour-coded, colour lost
[1] = aqueous kinetic solubility
[2] = rat microsomal stability (RLM); settings: for Metab. Stabil. (m): microsomal half-life; for half-life: rat, rat liver microsomes
[3] = recombinant human GALK1, Kinase-Glo Plus ATP depletion, read-out: hGALK
[4] = Tables 2-15, 35 μM ATP, 100 μM galactose, 1 h, bracketed figure after some values is undefined and not reported
[5] = recombinant mouse GALK1, Kinase-Glo Plus ATP depletion
[6] = Tables 18-19 and text of Example 12
[7] = Tables 2-15, 35 μM ATP, 100 μM galactose, 1 h, bracketed figure after some values is undefined and not reported, read-out: mGALK IC50
[8] = recombinant mouse GALK1, Kinase-Glo Plus ATP depletion, read-out: mGALK
[9] = Tables 18-20 and text of Example 12
[10] = Tables 2-15, 35 μM ATP, 100 μM galactose, 1 h, bracketed figure after some values (e.g. −1.2) is undefined and not reported, read-out: hGALK IC50

Chain of recombinant mouse GALK1 (Q9R0N0 whole entry): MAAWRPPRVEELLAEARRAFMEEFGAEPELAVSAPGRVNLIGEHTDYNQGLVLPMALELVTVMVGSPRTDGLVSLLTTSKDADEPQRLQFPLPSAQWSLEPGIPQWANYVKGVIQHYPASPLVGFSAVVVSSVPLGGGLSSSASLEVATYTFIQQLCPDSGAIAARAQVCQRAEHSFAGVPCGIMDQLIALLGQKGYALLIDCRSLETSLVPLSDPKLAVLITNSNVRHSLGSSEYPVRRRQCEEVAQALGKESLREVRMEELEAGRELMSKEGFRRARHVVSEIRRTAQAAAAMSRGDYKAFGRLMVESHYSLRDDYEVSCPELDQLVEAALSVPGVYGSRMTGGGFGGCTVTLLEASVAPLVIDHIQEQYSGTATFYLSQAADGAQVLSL
Chain of recombinant human GALK1 (P51570 whole entry): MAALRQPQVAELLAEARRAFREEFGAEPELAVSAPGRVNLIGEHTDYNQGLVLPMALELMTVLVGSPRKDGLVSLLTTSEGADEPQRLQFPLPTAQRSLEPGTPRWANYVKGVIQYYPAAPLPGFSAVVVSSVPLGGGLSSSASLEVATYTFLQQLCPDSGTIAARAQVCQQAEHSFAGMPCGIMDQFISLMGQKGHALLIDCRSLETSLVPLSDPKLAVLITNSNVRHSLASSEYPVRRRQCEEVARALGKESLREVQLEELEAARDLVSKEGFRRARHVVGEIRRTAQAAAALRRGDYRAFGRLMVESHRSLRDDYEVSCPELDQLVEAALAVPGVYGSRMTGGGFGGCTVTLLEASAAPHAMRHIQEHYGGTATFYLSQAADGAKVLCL
T1 sequence (P51570 whole entry K252A/E253A): as the sequence (P51570 whole entry) above, with K252A, E253A counted along it

| SMILES | IC50 (recombinant human GALK1; [3]) [µM] | mGALK IC50 (recombinant mouse GALK1; [4]) | mGALK (μM) (recombinant mouse GALK1; [5]) | change of potency versus parent compound (in words) (hGALK1m) | Emax (hGALK1m) [%] | IC50 (hGALK1m; [6]) [µM] | fold decrease of potency versus parent compound (hGALK1m; loss of potency relative to the unsubstituted parent) [fold] | Perm. (1 × 10^−6 cm/sec) (PAMPA permeability) | Papp (PAMPA permeability) [×10⁻⁶ cm/s] | Sol. [1] [µg/mL] | Metab. Stabil. (m) [2] [m] | half-life [2] [min] | IC50 (recombinant mouse GALK1; [7]) [µM] | IC50 (recombinant mouse GALK1; [8]) [µM] | IC50 (hGALK1m; [9]) [µM] | IC50 (recombinant human GALK1; [10]) [µM] |
| --- | --- | --- | --- | --- | --- | --- | --- | --- | --- | --- | --- | --- | --- | --- | --- | --- |
| COc1cccc2nc(NC3=NC(c4ccccc4Cl)C(C(=O)Nc4cc(C(=O)O)ccn4)=C(C)N3)oc12 (stereo not shown) [Compound 22, 2-(4-(2-chlorophenyl)-2-((7-methoxybenzo[d]oxazol-2-yl)amino)-6-methyl-1,4-dihydropyrimidine-5-carboxamido)isonicotinic acid] | 21.7 | inactive | in- active | greatly compromised the potencies | 80 | > 15 | 3.6 | <1 1 × 10^−6 cm/sec | < 10 | 65.7 | >30 | < 10 |  |  |  |  |
| CC1=C(C(=O)Nc2cc(C(=O)O)ccn2)C(c2ccc(F)cc2Cl)N=C(Nc2nc3ccc(F)cc3o2)N1 (stereo not shown) [Compound 45, 2-(4-(2-chloro-4-fluorophenyl)-2-((6-fluorobenzo[d]oxazol-2-yl)amino)-6-methyl-1,4-dihydropyrimidine-5-carboxamido)isonicotinic acid] | 0.86 |  |  | little effect on the potency | 100 |  |  | <1 1 × 10^−6 cm/sec | < 10 | 40.6 | >30 | < 10 | 4.32 | 4.32 | 0.258 |  |
| CC1=C(C(=O)Nc2cc(C(=O)O)ccn2)C(c2ccc(Cl)cc2Cl)N=C(Nc2nc3ccc(F)cc3o2)N1 (stereo not shown) [Compound 47, 2-(4-(2,4-dichlorophenyl)-2-((6-fluorobenzo[d]oxazol-2-yl)amino)-6-methyl-1,4-dihydropyrimidine-5-carboxamido)isonicotinic acid] | 1.09 |  |  | little effect on the potency | 85 |  |  | <1 1 × 10^−6 cm/sec | < 10 | <1 | >30 | < 10 | 3.85 | 3.85 | 0.345 |  |
| CC1=C(C(=O)Nc2cc(C(=O)O)ccn2)C(c2cccc(Cl)c2Cl)N=C(Nc2nc3ccc(F)cc3o2)N1 (stereo not shown) [Compound 49, 2-(4-(2,3-dichlorophenyl)-2-((6-fluorobenzo[d]oxazol-2-yl)amino)-6-methyl-1,4-dihydropyrimidine-5-carboxamido)isonicotinic acid] | 8.63 |  |  | compromised the potency | 100 | 3.6 |  |  | < 10 | 55.5 | >30 | < 10 | 21.7 | 21.7 |  | 8.63 |
| CC1=C(C(=O)Nc2cc(C(=O)O)ccn2)C(c2cccc(C(F)(F)F)c2Cl)N=C(Nc2nc3ccc(F)cc3o2)N1 (stereo not shown) [Compound 51, 2-(4-(2-chloro-3-(trifluoromethyl)phenyl)-2-((6-fluorobenzo[d]oxazol-2-yl)amino)-6-methyl-1,4-dihydropyrimidine-5-carboxamido)isonicotinic acid] | 19.3 |  |  | compromised the potency | 97 | 2.4 |  |  | < 10 | 70.1 | >30 | < 10 | 27.3 | 27.3 |  | 19.3 |
| COc1cccc(C2N=C(Nc3nc4ccc(F)cc4o3)NC(C)=C2C(=O)Nc2cc(C(=O)O)ccn2)c1Cl (stereo not shown) [Compound 52, 2-(4-(2-chloro-3-methoxyphenyl)-2-((6-fluorobenzo[d]oxazol-2-yl)amino)-6-methyl-1,4-dihydropyrimidine-5-carboxamido)isonicotinic acid] | 6.85 |  |  |  | 100 | 5.4 |  | <1 1 × 10^−6 cm/sec | < 10 | >81 | >30 | < 10 | 19.3 | 19.3 |  | 6.85 |
| CC1=C(C(=O)Nc2cc(C(=O)O)ccn2)C(c2ccccc2Br)N=C(Nc2nc3ccc(F)cc3o2)N1 (stereo not shown) [Compound 75, 2-(4-(2-bromophenyl)-2-((6-fluorobenzo[d]oxazol-2-yl)amino)-6-methyl-1,4-dihydropyrimidine-5-carboxamido)isonicotinic acid] |  |  |  | little impact on the potency | 100 |  |  |  | < 10 | 36.0 | >30 | < 10 | 3.85 | 3.85 | 0.235 | 0.54 |
| CC1=C(C(=O)Nc2cc(C(=O)O)ccn2)C(c2cccc(C(N)=O)c2)N=C(Nc2nc3ccc(F)cc3o2)N1 (stereo not shown) [Compound 76, 2-(4-(3-carbamoylphenyl)-2-((6-fluorobenzo[d]oxazol-2-yl)amino)-6-methyl-1,4-dihydropyrimidine-5-carboxamido)isonicotinic acid] | 7.69 |  |  | significantly impaired the potency | 90 | 3.8 |  | <1 1 × 10^−6 cm/sec | < 10 | >78 | >30 | < 10 | 21.7 | 21.7 |  | 7.69 |
| CC1=C(C(=O)Nc2cc(C(=O)O)ccn2)C(c2cccc(C(F)(F)F)c2)N=C(Nc2nc3ccc(F)cc3o2)N1 (stereo not shown) [Compound 77, 2-(2-((6-fluorobenzo[d]oxazol-2-yl)amino)-6-methyl-4-(3-(trifluoromethyl)phenyl)-1,4-dihydropyrimidine-5-carboxamido)isonicotinic acid] | 19.3 | inactive | in- active | compromised the potency | 90 | > 15 |  | <1 1 × 10^−6 cm/sec | < 10 | 60.1 | >30 | < 10 |  |  |  | 19.3 |
| CC1=C(C(=O)Nc2cc(C(=O)O)ccn2)C(c2cccc(S(N)(=O)=O)c2)N=C(Nc2nc3ccc(F)cc3o2)N1 (stereo not shown) [Compound 78, 2-(2-((6-fluorobenzo[d]oxazol-2-yl)amino)-6-methyl-4-(3-sulfamoylphenyl)-1,4-dihydropyrimidine-5-carboxamido)isonicotinic acid] | 17.2 |  |  | significantly impaired the potency | 75 | > 15 |  |  | < 10 | >84 | >30 | < 10 | 38.5 | 38.5 |  | 17.2 |
